This note sets out measurements from ChEMBL document CHEMBL5126514, “Molecular design of dual inhibitors of PI3K and potential molecular target of cancer for its treatment: A review” (Eur J Med Chem, 2022).

Assay [1] has as its target Histone deacetylase 1 (Homo sapiens, UniProt Q13547). As to the kind of experiment: Inhibition of full-length HDAC1 (unknown origin) by Color-de-Lys assay.
For assay [2], the target named is T1, Phosphatidylinositol 4,5-bisphosphate 3-kinase catalytic subunit alpha isoform (Homo sapiens, UniProt P42336). Description: Inhibition of PI3Kalpha (unknown origin) expressed in baculovirus expression system using L-alpha-phosphatidylinositol as substrate by luminescence assay.
T1 sequence (P42336 whole entry, canonical isoform): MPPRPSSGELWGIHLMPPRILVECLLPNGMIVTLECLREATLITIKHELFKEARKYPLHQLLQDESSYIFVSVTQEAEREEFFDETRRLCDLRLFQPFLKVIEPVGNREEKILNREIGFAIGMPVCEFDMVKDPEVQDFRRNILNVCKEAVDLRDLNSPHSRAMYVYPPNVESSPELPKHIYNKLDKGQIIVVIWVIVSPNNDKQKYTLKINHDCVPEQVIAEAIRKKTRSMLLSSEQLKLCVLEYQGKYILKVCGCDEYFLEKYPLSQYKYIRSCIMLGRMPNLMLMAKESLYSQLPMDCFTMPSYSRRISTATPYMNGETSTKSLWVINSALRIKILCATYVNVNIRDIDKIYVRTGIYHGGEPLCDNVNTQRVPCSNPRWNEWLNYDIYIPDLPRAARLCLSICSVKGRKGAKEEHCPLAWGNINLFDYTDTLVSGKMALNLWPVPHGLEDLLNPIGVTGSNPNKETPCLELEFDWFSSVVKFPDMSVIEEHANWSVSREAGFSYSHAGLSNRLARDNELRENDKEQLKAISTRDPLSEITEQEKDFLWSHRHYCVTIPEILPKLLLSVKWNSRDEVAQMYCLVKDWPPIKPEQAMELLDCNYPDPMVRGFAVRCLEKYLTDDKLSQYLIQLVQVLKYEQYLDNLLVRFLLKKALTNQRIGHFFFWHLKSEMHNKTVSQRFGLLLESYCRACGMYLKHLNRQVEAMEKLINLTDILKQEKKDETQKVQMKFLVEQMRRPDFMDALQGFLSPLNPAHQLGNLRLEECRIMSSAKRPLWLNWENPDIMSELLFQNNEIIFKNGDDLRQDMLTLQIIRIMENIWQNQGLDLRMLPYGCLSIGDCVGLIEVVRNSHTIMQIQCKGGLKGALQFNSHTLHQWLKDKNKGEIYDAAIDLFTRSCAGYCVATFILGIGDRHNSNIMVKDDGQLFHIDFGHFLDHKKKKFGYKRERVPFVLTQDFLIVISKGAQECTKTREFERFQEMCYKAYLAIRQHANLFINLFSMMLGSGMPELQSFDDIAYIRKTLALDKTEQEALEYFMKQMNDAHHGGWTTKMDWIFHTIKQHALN
The target of assay [3] is Phosphatidylinositol 4,5-bisphosphate 3-kinase catalytic subunit beta isoform (Homo sapiens, UniProt P42338). Description: Inhibition of full-length PI3Kbeta (unknown origin) expressed in baculovirus infected Sf9 cells by ADP-Glo luminescent kinase assay. (In ADP-Glo the light output rises with the ADP produced.)
Chain of Phosphatidylinositol 4,5-bisphosphate 3-kinase catalytic subunit beta isoform (P42338 whole entry, canonical isoform): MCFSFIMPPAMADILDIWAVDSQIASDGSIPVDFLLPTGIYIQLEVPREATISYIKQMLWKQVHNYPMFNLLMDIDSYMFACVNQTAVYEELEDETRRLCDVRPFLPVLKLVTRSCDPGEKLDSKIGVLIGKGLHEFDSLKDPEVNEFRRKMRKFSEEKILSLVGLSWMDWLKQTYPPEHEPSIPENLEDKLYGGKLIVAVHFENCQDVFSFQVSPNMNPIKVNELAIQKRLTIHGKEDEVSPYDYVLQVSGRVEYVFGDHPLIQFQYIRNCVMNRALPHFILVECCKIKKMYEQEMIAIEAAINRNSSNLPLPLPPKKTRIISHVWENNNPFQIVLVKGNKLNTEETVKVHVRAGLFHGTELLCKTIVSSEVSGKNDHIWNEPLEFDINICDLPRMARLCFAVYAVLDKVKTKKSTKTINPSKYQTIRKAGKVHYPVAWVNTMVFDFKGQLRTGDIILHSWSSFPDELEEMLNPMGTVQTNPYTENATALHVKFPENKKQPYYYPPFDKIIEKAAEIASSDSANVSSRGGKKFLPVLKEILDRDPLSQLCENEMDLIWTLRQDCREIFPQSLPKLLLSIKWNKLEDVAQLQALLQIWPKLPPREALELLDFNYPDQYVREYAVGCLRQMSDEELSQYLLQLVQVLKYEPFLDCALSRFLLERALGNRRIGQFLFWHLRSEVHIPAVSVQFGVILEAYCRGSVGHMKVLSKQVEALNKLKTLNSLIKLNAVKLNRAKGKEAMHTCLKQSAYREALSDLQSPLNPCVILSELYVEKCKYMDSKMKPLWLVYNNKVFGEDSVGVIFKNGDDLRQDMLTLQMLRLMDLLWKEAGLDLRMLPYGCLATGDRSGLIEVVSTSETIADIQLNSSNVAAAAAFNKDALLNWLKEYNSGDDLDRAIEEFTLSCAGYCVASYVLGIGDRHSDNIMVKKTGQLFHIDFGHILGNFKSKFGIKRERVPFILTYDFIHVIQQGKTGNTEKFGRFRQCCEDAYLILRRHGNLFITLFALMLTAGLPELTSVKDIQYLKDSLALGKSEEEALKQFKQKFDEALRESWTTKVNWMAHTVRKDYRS
Assay [4] concerns the target T2, Phosphatidylinositol 4,5-bisphosphate 3-kinase catalytic subunit delta isoform (Homo sapiens, UniProt O00329).
T2 sequence (O00329 whole entry): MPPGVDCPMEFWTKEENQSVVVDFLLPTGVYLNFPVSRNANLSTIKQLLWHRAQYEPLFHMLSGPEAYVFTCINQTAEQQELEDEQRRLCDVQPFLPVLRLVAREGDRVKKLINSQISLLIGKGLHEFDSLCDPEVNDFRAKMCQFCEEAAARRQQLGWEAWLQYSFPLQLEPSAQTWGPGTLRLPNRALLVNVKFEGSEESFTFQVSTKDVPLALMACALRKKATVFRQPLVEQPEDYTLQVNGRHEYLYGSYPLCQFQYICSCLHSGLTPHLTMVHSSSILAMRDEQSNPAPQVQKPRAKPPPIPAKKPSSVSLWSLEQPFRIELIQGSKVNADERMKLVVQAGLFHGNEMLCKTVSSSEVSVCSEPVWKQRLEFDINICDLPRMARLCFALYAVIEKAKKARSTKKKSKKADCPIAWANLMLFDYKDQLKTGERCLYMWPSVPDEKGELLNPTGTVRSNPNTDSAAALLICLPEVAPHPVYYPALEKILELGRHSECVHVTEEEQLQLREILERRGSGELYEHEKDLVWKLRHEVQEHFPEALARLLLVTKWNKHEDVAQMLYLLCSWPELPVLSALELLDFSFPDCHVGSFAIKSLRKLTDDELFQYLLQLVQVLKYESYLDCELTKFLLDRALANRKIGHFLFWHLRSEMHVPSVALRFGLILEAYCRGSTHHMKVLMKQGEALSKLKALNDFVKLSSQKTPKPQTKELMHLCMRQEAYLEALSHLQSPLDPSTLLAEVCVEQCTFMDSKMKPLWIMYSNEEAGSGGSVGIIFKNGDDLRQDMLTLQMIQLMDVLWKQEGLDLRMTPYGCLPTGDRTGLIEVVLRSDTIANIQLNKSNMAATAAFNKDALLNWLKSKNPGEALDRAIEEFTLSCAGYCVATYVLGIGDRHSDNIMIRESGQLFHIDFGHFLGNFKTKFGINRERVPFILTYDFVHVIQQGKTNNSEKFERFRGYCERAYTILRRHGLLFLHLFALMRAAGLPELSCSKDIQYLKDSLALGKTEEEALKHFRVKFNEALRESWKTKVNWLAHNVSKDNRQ
As to the kind of experiment: Inhibition of full-length PI3Kdelta (unknown origin) expressed in baculovirus infected Sf9 cells by ADP-Glo luminescent kinase assay.

In assay [5] the target is T1, Phosphatidylinositol 4,5-bisphosphate 3-kinase catalytic subunit alpha isoform. As to the kind of experiment: Inhibition of full-length PI3Kalpha (unknown origin) expressed in baculovirus infected Sf9 cells by ADP-Glo luminescent kinase assay.
Assay [6] concerns the target T3, Polyamine deacetylase HDAC10 (Homo sapiens, UniProt Q969S8).
T3 sequence (Q969S8 whole entry): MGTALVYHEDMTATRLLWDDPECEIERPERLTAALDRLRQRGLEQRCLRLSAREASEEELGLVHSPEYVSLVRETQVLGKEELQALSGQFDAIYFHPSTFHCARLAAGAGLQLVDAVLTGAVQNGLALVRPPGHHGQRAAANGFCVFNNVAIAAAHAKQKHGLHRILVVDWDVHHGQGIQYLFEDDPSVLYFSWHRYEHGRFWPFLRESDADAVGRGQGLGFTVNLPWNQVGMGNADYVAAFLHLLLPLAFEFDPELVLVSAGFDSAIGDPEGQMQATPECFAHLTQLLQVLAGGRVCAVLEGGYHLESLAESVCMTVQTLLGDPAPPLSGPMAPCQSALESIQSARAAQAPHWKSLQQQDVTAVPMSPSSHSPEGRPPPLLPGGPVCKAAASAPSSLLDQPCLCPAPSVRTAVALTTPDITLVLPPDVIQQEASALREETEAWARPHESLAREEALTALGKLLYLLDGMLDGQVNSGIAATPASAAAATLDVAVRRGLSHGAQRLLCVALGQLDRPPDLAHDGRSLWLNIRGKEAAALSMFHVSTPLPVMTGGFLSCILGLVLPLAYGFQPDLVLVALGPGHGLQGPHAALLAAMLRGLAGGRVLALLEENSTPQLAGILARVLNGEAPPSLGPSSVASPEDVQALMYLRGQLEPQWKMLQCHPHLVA
Description: Inhibition of full-length HDAC10 (unknown origin) by Color-de-Lys assay.

In assay [7] the target is Phosphatidylinositol 4,5-bisphosphate 3-kinase catalytic subunit gamma isoform (Homo sapiens, UniProt P48736). Description: Inhibition of PI3Kgamma (unknown origin) expressed in baculovirus expression system using L-alpha-phosphatidylinositol as substrate by luminescence assay.
Chain of Phosphatidylinositol 4,5-bisphosphate 3-kinase catalytic subunit gamma isoform (P48736 whole entry, canonical isoform): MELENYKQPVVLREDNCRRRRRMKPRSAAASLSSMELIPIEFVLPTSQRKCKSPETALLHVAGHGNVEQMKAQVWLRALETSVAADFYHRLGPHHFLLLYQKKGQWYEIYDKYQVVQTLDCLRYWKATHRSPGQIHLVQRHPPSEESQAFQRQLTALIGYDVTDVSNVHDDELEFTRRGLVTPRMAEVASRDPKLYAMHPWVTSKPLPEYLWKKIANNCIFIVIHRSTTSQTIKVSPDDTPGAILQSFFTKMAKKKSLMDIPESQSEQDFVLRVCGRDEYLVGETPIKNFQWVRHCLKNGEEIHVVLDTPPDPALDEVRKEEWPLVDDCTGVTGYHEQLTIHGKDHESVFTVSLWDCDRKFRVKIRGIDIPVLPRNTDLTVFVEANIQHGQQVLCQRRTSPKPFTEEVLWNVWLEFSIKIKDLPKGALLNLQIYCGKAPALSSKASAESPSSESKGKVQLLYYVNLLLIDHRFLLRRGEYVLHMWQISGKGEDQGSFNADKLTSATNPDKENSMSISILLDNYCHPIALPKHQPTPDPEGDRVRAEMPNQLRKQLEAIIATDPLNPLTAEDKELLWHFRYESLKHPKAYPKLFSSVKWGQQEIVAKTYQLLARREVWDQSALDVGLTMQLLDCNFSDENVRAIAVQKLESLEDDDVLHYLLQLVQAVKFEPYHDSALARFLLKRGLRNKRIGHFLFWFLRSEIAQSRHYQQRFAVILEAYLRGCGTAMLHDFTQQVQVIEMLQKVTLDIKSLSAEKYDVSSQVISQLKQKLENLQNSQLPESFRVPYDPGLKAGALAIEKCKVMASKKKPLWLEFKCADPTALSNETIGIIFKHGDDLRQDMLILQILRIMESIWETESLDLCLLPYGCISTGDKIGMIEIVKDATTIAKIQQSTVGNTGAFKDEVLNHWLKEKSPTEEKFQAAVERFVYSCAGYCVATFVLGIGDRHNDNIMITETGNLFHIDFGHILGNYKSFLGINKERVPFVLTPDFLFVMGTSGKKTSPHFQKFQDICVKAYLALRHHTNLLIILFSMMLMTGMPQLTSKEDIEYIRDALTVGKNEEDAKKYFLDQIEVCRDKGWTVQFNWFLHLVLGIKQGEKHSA
The target of assay [8] is T2, Phosphatidylinositol 4,5-bisphosphate 3-kinase catalytic subunit delta isoform. Description: Inhibition of PI3Kdelta (unknown origin) expressed in baculovirus expression system using L-alpha-phosphatidylinositol as substrate by luminescence assay.
Assay [9] shares this target. As to the kind of experiment: Inhibition of PI3Kdelta (unknown origin).
In assay [10] the target is T4, Mitogen-activated protein kinase; ERK1/ERK2 (Homo sapiens) (UniProt P27361+P28482). Description: Inhibition of Erk1/2 phosphorylation in human A549 cells. Conditions: concentration not given here. Type of assay: cell-based.
T4 sequence (P27361 whole entry, looked up, canonical isoform): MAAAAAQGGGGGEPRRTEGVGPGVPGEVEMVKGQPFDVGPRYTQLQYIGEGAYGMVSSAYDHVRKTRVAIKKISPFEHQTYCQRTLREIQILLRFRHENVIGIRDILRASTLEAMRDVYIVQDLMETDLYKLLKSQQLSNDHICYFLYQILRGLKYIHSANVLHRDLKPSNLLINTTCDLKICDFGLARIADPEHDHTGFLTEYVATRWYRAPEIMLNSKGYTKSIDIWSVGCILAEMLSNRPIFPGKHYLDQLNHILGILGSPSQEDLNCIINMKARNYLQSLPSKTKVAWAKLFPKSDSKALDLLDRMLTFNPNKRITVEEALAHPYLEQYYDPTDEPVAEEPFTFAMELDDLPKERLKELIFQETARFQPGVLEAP
T4 sequence (P28482 whole entry, looked up, canonical isoform): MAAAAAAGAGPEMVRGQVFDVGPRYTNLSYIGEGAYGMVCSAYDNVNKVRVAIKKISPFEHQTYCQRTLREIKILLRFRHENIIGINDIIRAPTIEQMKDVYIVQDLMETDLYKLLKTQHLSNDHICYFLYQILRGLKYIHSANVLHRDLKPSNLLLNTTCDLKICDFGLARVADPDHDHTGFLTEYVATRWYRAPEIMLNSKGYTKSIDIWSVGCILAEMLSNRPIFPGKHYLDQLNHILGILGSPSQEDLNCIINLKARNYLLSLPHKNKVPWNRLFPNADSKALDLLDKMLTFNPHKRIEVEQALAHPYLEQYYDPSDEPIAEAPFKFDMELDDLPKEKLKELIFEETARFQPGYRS
The target of assay [11] is T1, Phosphatidylinositol 4,5-bisphosphate 3-kinase catalytic subunit alpha isoform. Description: Inhibition of PI3Kalpha (unknown origin).
Assay [12] deals with T4, Mitogen-activated protein kinase; ERK1/ERK2 (Homo sapiens). As to the kind of experiment: Inhibition of Erk1/2 phosphorylation in human PANC-1 cells at 5 uM relative to control. Type of assay: cell-based.
The subject of assay [13] is A549. Description: Anticancer activity against human A549 cells assessed as cell killing activity at 10 uM relative to control. It is filed as functional.
Assay [14] has as its system PANC-1. As to the kind of experiment: Anticancer activity against human PANC-1 cells assessed as cell killing activity at 25 uM relative to control. It is filed as functional.
The nature of assay [15]: Inhibition of PI3K (unknown origin). Details: species or system Homo sapiens.
Assay [16] in a line: Inhibition of mTORC1 (unknown origin). More on the design: species or system Homo sapiens.
The target of assay [17] is T5, Protein deacetylase HDAC6 (Homo sapiens, UniProt Q9UBN7).
T5 sequence (Q9UBN7 whole entry): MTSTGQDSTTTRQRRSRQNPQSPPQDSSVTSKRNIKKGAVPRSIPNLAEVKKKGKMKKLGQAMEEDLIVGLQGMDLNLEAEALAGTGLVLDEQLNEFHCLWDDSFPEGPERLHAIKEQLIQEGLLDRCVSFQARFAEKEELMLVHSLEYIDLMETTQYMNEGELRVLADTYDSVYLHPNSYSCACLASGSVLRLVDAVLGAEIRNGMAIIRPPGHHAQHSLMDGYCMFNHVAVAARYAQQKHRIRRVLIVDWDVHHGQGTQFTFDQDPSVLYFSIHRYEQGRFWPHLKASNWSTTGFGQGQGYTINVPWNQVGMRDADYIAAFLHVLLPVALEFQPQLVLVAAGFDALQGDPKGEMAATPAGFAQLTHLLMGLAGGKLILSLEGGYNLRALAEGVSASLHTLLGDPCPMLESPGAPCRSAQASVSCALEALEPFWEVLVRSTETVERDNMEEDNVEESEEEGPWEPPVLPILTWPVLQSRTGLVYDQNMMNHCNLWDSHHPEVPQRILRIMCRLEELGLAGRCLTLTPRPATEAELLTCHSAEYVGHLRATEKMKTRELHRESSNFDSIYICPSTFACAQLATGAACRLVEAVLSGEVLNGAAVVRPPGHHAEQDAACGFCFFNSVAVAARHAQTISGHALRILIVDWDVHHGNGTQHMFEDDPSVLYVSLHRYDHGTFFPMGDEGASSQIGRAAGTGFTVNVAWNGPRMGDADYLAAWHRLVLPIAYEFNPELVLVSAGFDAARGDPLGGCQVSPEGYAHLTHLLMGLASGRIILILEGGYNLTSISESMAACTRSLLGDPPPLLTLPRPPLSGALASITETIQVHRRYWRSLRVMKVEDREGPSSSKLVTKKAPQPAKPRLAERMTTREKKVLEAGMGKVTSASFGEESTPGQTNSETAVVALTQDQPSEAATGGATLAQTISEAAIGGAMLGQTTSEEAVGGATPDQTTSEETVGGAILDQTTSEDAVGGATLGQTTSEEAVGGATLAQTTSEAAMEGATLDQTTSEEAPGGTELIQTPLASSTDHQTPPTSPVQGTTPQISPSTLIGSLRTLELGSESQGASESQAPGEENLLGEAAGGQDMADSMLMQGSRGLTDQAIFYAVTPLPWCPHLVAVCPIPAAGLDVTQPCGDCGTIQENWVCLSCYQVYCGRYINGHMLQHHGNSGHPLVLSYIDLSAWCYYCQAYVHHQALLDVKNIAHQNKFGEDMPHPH
Description: Inhibition of full-length HDAC6 (unknown origin) by Color-de-Lys assay.

Assay [18] has as its system KB. As to the kind of experiment: Anticancer activity against human KB cells assessed as growth inhibition. It is filed as functional, cell-based.
The nature of assay [19]: Anticancer activity against human TU183 cells assessed as growth inhibition. Type of assay: functional, cell-based.
For assay [20], the system named is SCC-4. As to the kind of experiment: Anticancer activity against human SCC-4 cells assessed as growth inhibition. Type of assay: functional, cell-based.

Chain of Histone deacetylase 1 (Q13547 whole entry, canonical isoform): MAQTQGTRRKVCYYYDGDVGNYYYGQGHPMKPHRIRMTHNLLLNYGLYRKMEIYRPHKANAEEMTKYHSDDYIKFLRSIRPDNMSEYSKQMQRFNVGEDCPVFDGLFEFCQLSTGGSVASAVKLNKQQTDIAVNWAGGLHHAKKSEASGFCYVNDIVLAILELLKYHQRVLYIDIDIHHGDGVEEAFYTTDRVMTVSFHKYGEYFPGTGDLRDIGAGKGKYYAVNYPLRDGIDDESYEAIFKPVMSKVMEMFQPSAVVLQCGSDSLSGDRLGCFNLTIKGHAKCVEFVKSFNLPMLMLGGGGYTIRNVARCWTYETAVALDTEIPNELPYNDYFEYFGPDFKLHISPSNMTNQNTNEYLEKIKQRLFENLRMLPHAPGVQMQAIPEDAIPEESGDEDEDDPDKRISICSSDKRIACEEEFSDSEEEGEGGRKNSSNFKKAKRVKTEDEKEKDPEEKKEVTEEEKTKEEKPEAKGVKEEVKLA

A word on the IC50: it is the point on the concentration scale where inhibition reaches its midpoint. Consider `COc1ncc(-c2cc(OCCN(C)c3ncc(C(=O)NO)cn3)c3nc(N)nc(C)c3c2)cc1C`, for which the 50% inhibitory concentration (IC50) in [1] amounted to 1.3 nM; in assay [2] it was 226 nM.

Consider `Cn1cc(CNCC2CCN(c3ncc(C(=O)NO)cn3)CC2)c2ccccc21` [QUISINOSTAT], for which the IC50 in assay [3] amounted to 54 nM; in assay [4] it was 39 nM; in [5] it was 19 nM; in assay [6] it was 2.8 nM.

Consider `CCn1c(=O)c(-c2cc[nH]n2)cc2c(C)nc(N)nc21` [VOXTALISIB], for which the IC50 is 43 nM in assay [7] and 9 nM in assay [8].

`O=C(NOCCOCCOCCOCCN1CCN(c2nc(N3CCOCC3)nc(-n3c(C(F)F)nc4ccccc43)n2)CC1)c1ccc(F)c(F)c1Nc1ccc(I)cc1F`: the concentration for half-maximal inhibition (IC50) in assay [9] came to 182 nM.

On to `COc1c(OCCCCCC(=O)NO)ccc2c1N=C(NC(=O)c1ccccc1)N1CCN=C21`, for which the IC50 in assay [1] was found to be 2.98 nM; in assay [2], 50 nM.

The inhibition is the percentage by which the read-out fell short of the control. `Cc1c(Cc2cccc(N(C)S(=O)(=O)CCCNCCCCCC(=O)N3CCN(c4nc(N5CCOCC5)nc(-n5c(C(F)F)nc6ccccc65)n4)CC3)c2)c(=O)oc2cc(OC(=O)N(C)C)ccc12`: the inhibition in assay [10] and in [12] was 35% in each case. Also, in assay [11], half-maximal inhibition (IC50) was put at 172 nM. In addition, the inhibition at 10 µM in [13] was determined as 50%. Also, in [14], the inhibition at 25 µM turned out to be 50%.

`COc1ncc(-c2ccc3nccc(-c4ccnnc4)c3c2)cc1NS(=O)(=O)c1ccc(F)cc1F` [OMIPALISIB]: the results for the IC50 in assay [15] and in [16] were 0.3 nM and 0.04 nM, respectively.

With `O=C(NO)c1ccc(/C=N/NC(=O)c2ccnc(-c3ccccc3)n2)cc1`, the IC50 in [17] was 18.7 nM.

As to `COc1ncc(-c2cc(OCCCCCCC(=O)NO)c3nc(N)nc(C)c3c2)cc1F`, the IC50 in assay [1] was 1.4 nM; in [2], 42 nM.

On to `COc1ccc(-c2ccc3ncc4c(c3c2)n(-c2ccc(N3CCNCC3)c(C(F)(F)F)c2)c(=O)n4C)cn1` [BGT-226 FREE BASE], for which the IC50 in assay [8] came out at 38 nM; in assay [18], 7.4 nM; in [19] it was 7.4 nM; in assay [20], 7.4 nM.
